Consider seven molecules from PubChem BioAssay (NCI).

Several values for one entry are separate records, joined by “and”; a condition that tells them apart may be missing. Equal values may be shown once.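 Exposure lasted 48 hours, with cells grown in 96-well plates and compounds tested at five concentrations. GI50: concentration for 50% inhibition of growth. At the TGI there is no net growth.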

Test systems include UACC-62 melanoma; SNB-19 CNS; UO-31 renal; SK-MEL-5 melanoma; COLO 205 colon; M14 melanoma; HT29 colon; SF-295 CNS; LOX IMVI melanoma; MDA-MB-435.
Holding throughout (assay): inhibition of tumour cell growth, NCI panel, 48 h

In the case of `CO/C(=C1/NC(=O)C(Cc2ccc(O)c(Br)c2)N(C)C(=O)C(C)NC(=O)CCC/C=C(\C)CCC(C)OC1=O)c1ccccc1` (configuration not stated), the GI50 in the experiment on UACC-62 melanoma is 75.3 nM; in the experiment on SNB-19 CNS, 31 nM; in the experiment with UO-31 renal, 19.2 nM; in the experiment with SK-MEL-5 melanoma it was 32.7 nM; in the experiment on COLO 205 colon, 23.3 nM; with M14 melanoma, less than 20.5 nM. In addition, the GI50 was less than 13.5 nM with HT29 colon, 50.2 nM with SF-295 CNS, 15.9 nM in the experiment on LOX IMVI melanoma and 38.5 nM with MDA-MB-435. The TGI is 20400 nM in the experiment on UACC-62 melanoma; 1960 nM with SNB-19 CNS; 45.8 nM in the experiment on UO-31 renal; 387 nM in the experiment on SK-MEL-5 melanoma; greater than 100000 nM in the experiment with COLO 205 colon; 170 nM in the experiment with SF-295 CNS. Moreover, the TGI with LOX IMVI melanoma is 653 nM; with MDA-MB-435, 13300 nM.
Consider `CN(C)C1CN(C(=O)c2cc(-c3ccc4ncnc(N5CCc6cc(F)c(Cl)cc65)c4c3)cnc2N)C1`, for which the GI50 was 430 nM in the experiment with UACC-62 melanoma; 1650 nM in the experiment with SNB-19 CNS; 237 nM with UO-31 renal; 1540 nM in the experiment on SK-MEL-5 melanoma; 1970 nM in the experiment with COLO 205 colon; 886 nM with M14 melanoma. In addition, the GI50 was 543 nM with HT29 colon, 1180 nM with SF-295 CNS, 458 nM with LOX IMVI melanoma and 687 nM with MDA-MB-435. Also, the TGI with UACC-62 melanoma was 2160 nM; in the experiment on SNB-19 CNS, greater than 100000 nM; in the experiment on UO-31 renal, greater than 100000 nM; in the experiment with SK-MEL-5 melanoma, 2920 nM; in the experiment on COLO 205 colon, greater than 100000 nM; in the experiment with M14 melanoma, greater than 100000 nM. Besides, the TGI with HT29 colon, with SF-295 CNS and in the experiment with LOX IMVI melanoma was greater than 100000 nM throughout.
Take `CCC(C)C1NC(=O)C(NC(=O)C(CC(C)C)N(C)C(=O)[C@@H]2CC(O)CN2C(=O)[C@H](C)O)C(C)OC(=O)[C@H](Cc2ccc(OC)cc2)N(C)C(=O)[C@@H]2CCCN2C(=O)[C@H](CC(C)C)NC(=O)C(C)C(=O)[C@H](C(C)C)OC(=O)CC1O` (some centres not stated): the GI50 in the experiment on UACC-62 melanoma is less than 10 nM; in the experiment on SNB-19 CNS it was less than 10 nM; in the experiment on UO-31 renal, 581 nM; with SK-MEL-5 melanoma, less than 10 nM; in the experiment with COLO 205 colon it was 16.3 nM; with M14 melanoma, 11.4 nM. Also, the GI50 is 16.9 nM in the experiment on HT29 colon, 26.8 nM in the experiment on SF-295 CNS, 21.8 nM in the experiment with LOX IMVI melanoma and 36.5 nM with MDA-MB-435. The TGI in the experiment with UACC-62 melanoma is 361 nM and 49.5 nM; with SNB-19 CNS, 3390 nM and 346 nM; with UO-31 renal it was 5650 nM; with SK-MEL-5 melanoma, 445 nM and 57.4 nM; with COLO 205 colon, 273 nM and 1690 nM; in the experiment with M14 melanoma, 762 nM and 202 nM. The TGI in the experiment with HT29 colon is 2230 nM and 1090 nM; with SF-295 CNS, 2050 nM and 388 nM; with LOX IMVI melanoma, 1060 nM and 193 nM; in the experiment on MDA-MB-435, 705 nM and 410 nM.
Consider `O=C(CCN1CCCN(c2cnc3ccccc3n2)CC1)c1csc2ccccc12`, for which the GI50 with UACC-62 melanoma is 19700 nM; in the experiment on SNB-19 CNS, 36700 nM; in the experiment on UO-31 renal, 14800 nM; with SK-MEL-5 melanoma it was 16200 nM; with COLO 205 colon, 17600 nM; with M14 melanoma, 19800 nM. For the same molecule, the GI50 in the experiment on HT29 colon is 13000 nM; in the experiment on SF-295 CNS, 58000 nM; in the experiment with LOX IMVI melanoma, 17200 nM; in the experiment with MDA-MB-435 it was 18100 nM. Besides, the TGI is 34200 nM in the experiment on UACC-62 melanoma; greater than 100000 nM in the experiment on SNB-19 CNS; 28000 nM in the experiment on UO-31 renal; 30000 nM with SK-MEL-5 melanoma; 33400 nM in the experiment with COLO 205 colon; 39300 nM with M14 melanoma. Besides, the TGI was 28200 nM in the experiment with HT29 colon, greater than 100000 nM with SF-295 CNS, 31300 nM with LOX IMVI melanoma and 32200 nM with MDA-MB-435.
For the molecule `COC(=O)c1cccc(NC(=O)c2ccc(NC3=C(Cl)C(=O)N(Cc4ccccc4)C3=O)cc2)c1`, the GI50 was 11700 nM in the experiment on UACC-62 melanoma; 28500 nM in the experiment on SNB-19 CNS; 1700 nM in the experiment on UO-31 renal; 16500 nM in the experiment on SK-MEL-5 melanoma; 21400 nM in the experiment on COLO 205 colon; 9750 nM with M14 melanoma. Also, the GI50 in the experiment with HT29 colon is 21100 nM; in the experiment on SF-295 CNS it was 17600 nM; with LOX IMVI melanoma, 1760 nM; with MDA-MB-435, 14300 nM. Besides, the TGI with UACC-62 melanoma was 25400 nM; in the experiment with SNB-19 CNS, greater than 100000 nM; with UO-31 renal it was 3310 nM; with SK-MEL-5 melanoma, 34000 nM; with COLO 205 colon, greater than 100000 nM; in the experiment on M14 melanoma, 23000 nM. In addition, the TGI in the experiment with HT29 colon was greater than 100000 nM; with SF-295 CNS it was 57800 nM; in the experiment on LOX IMVI melanoma it was 16200 nM; in the experiment on MDA-MB-435, 34200 nM.
As for `Cc1cc(-c2cc(OC(=O)c3ccccc3)ccc2Cl)cc2nnc(Nc3ccc(OCCN4CCCC4)cc3)nc12`, the GI50 in the experiment with UACC-62 melanoma was 1710 nM; in the experiment on SNB-19 CNS, 1860 nM; with UO-31 renal, 1190 nM; with SK-MEL-5 melanoma it was 1520 nM; in the experiment on COLO 205 colon, 1680 nM; in the experiment on M14 melanoma, 1640 nM. Also, the GI50 with HT29 colon is 1610 nM; in the experiment with SF-295 CNS, 1450 nM; in the experiment on LOX IMVI melanoma, 1450 nM; in the experiment on MDA-MB-435, 1620 nM. Also, the TGI is 3360 nM in the experiment with UACC-62 melanoma; 3370 nM in the experiment with SNB-19 CNS; 2440 nM in the experiment with UO-31 renal; 2890 nM in the experiment with SK-MEL-5 melanoma; 3600 nM in the experiment with COLO 205 colon; 3240 nM in the experiment on M14 melanoma. The TGI in the experiment with HT29 colon stood at 3040 nM; in the experiment with SF-295 CNS, 2790 nM; with LOX IMVI melanoma, 2950 nM; in the experiment on MDA-MB-435 it was 3020 nM.
For the molecule `COc1ccc(/C=C\c2cc(OC)c(OC)c(OC)c2)c(NS(=O)(=O)c2ccc(F)cc2)c1O`, the GI50 with UACC-62 melanoma is 45.2 nM; in the experiment with SNB-19 CNS it was 156 nM; with UO-31 renal, 333 nM; in the experiment with SK-MEL-5 melanoma, 102 nM; in the experiment with COLO 205 colon it was 1930 nM; in the experiment with M14 melanoma it was 32.6 nM. Moreover, the GI50 was 2280 nM with HT29 colon, 214 nM in the experiment with SF-295 CNS, 142 nM in the experiment on LOX IMVI melanoma and 20.4 nM in the experiment on MDA-MB-435. In addition, the TGI in the experiment on UACC-62 melanoma was greater than 80100 nM; with SNB-19 CNS it was greater than 100000 nM; in the experiment with UO-31 renal it was greater than 82900 nM; in the experiment with SK-MEL-5 melanoma it was 515 nM; in the experiment on COLO 205 colon it was 7940 nM; in the experiment with M14 melanoma, greater than 100000 nM. Also, the TGI is 20500 nM with HT29 colon, greater than 45900 nM in the experiment on SF-295 CNS, 36800 nM in the experiment with LOX IMVI melanoma and 51.5 nM with MDA-MB-435.
